In patent publication US12678438B2, “Treatment of cancer with CDK inhibitors” (THE TRUSTEES OF THE UNIVERSITY OF PENNSYLVANIA, priority 2019, dated 2026):

Key:
[1] = target: CAK complex-CDK7/CyclinH/MAT1 (Homo sapiens, UniProt P50613); experiment: In vitro kinase assay, CAK complex with GST-MED1 protein, immunoblot; type: biochemical; conditions: 60 min at 30° C.
Description: The kinase assay was performed by preparing the master mixture of 3 ul (5×) kinase assay buffer, 0.5 ul of 500 uM ATP (BPS Bioscience, 79603), 1.25 ul (1 ug/ul) Human Recombinant GST-MED1 protein (Lifespan Biosciences, LS-G59680-25), and 7.75 ul of kinase assay grade water per reaction for the desired number of reactions. […] Additionally, kinase assay reaction mixtures containing no ATP and CDK7 were used as negative controls. Next, CAK complex-CDK7/CyclinH/MAT1 enzyme (BPS Bioscience) was thawed and diluted to (10 ng/111) in 1× kinase assay buffer. The reactions were initiated by adding 10 ul of diluted CAK complex to the designated wells and incubated at 30° C. for 60 min. After the incubation the reaction was stopped, and the mixture were analyzed through western blotting.

[2] = system: AR-positive cells; experiment: Long-term colony formation assay; type: cell-based, human; conditions: 50 nM THZ1, 12-14 days
Description: For the long-term colony formation assay, 10,000-50,000 cells/well in six-well plates (n=3) were seeded and treated with the required drugs/compounds or vehicle for 14 days. Media was refreshed every 4-5 days. Colonies were fixed and stained using 0.5% (w/v) crystal violet (Sigma, C0775) in 20% (v/v) methanol for 30 min, washed with distilled deionized water, and air-dried. To quantify staining, we washed the stained wells with 500 μL 10% acetic acid and using colorimetric assays determined the absorbance at 590 nm using a spectrophotometer (Synergy HT, BioTek Instruments, Vermont-USA).

[3] = system: MED1-AR complex; experiment: Immunoprecipitation of endogenous MED1-AR complex; type: cell-based, human; conditions: VCaP and LNCaP nuclear extracts, 100 nM THZ1, 6 h
Description: For endogenous immunoprecipitation experiments, nuclear extracts were obtained from VCaP and LNCaP cells using NE-PER nuclear extraction kit (Thermo Scientific, 78835). Nuclear pellet was then lysed in IP buffer (20 mM Tris pH7.5, 150 mM NaCl, 1% Triton-X 100, Protease/Phosphatase Inhibitor) by sonication. Nuclear lysates (0.35-1.0 mg) were pre-cleaned by incubation with protein G Dynabeads (Life Technologies) for 1 h on a rotator at 4° C. 5 μg antibody was added to the pre-cleared lysates and incubated on a rotator at 4° C. overnight. Protein G Dynabeads were then added for 1 h. Beads were washed twice in IP buffer, containing 300 mM NaCl, and resuspended in 40 μL of 2× loading buffer and boiled at 95° C. for […] for separation of the protein and beads. Samples were then analyzed by SDS-PAGE and western blotting as described above.

[4] = system: AR target proteins (ERG, MYC, PSA); experiment: Immunoblot of AR target proteins; type: cell-based, human
Description: (§1) Cell lysates were prepared with RIPA buffer (Boston Bioproducts, BP-115DG)-10 mM Tris-HCl pH 7.5, 1 mM EDTA, 400 mM NaCl, 0.5% NP-40 and 1 mM DTT, supplemented with protease inhibitor cocktail (Pierce, A32965) and phosphatase inhibitor (Thermo, 1861280). For immunoblotting 200 μg total protein extract was boiled in sample buffer and 15-25 μg aliquots were separated by SDS-PAGE and transferred onto Polyvinylidene Difluoride membrane (GE Healthcare, IPVH00010). The membrane was incubated for one hour in blocking buffer [Tris-buffered saline, 0.1% Tween (TBS-T), 5% nonfat dry milk followed by overnight incubation on a rocker at 4° C. with the primary antibody. Following a wash with TBS-T, the blot was incubated with horseradish peroxidase-conjugated secondary antibody for 2 hrs on a rocker at room temperature. The blots were washed again and signals were visualized using enhanced chemiluminescence system as per manufacturer's protocol (GE Healthcare) or Kwik Quant Imager (Kindle Biosciences). […]

[5] = system: p-MED1 (p-T1457 MED1); experiment: Immunoblot of p-MED1 in AR negative RWPE and DU145 cells; type: cell-based, human; conditions: RWPE and DU145, highest tested concentration
Description: as §1

[6] = system: AR-negative DU145 xenografts; experiment: DU145 mouse xenograft; type: in vivo; conditions: 10 mg/kg b.i.d., four weeks
Description: In vivo efficacy studies were performed in accordance with protocols approved by the Institutional Animal Care and Use Committee (IACUC) at the University of Pennsylvania and in compliance with all regulatory standards. Four to five-week-old male NOD SCID gamma mice (Jackson Lab, 005557) were procured from Jackson Laboratory. In the VCaP experiment, 2×10^6 VCaP prostate cancer cells suspended in 80 μL of RPMI-1640 with 50% Matrigel (BD Biosciences) were implanted subcutaneously into the dorsal flank of the mice. The animals were castrated when the tumor volumes reached approximately 150 mm^3. […] Tumor growth was recorded using digital calipers and tumor volumes were estimated using the formula (π/6) (L×W^2), where L=length and W=width of tumor. Body weight during the study was also monitored. At the end of the treatment regimen the mice were sacrificed and were extracted for further analysis.
Xenograft tumor pieces were fixed in 4% of formaldehyde for 48 h and paraffin embedded. Paraffin embedded sections from the tumors of treated and untreated mice were deparaffinized, rehydrated and subjected to epitope retrieval stained with a phospho-MED1 antibody (1:4000/1:2000), anti-PSA antibody (1:1000), anti-Ki67 (1:500), or anti-cleaved caspase3 antibody (1:1000) followed by peroxidase-based detection and counterstaining with hematoxylin using the Leica Bond Rxm system. Photographs were taken on a Leica DMI6000B inverted light and fluorescent microscope with a 20× objective. images were assessed and quantified in ImageJ.

Chain of CAK complex-CDK7/CyclinH/MAT1 (P50613 whole entry): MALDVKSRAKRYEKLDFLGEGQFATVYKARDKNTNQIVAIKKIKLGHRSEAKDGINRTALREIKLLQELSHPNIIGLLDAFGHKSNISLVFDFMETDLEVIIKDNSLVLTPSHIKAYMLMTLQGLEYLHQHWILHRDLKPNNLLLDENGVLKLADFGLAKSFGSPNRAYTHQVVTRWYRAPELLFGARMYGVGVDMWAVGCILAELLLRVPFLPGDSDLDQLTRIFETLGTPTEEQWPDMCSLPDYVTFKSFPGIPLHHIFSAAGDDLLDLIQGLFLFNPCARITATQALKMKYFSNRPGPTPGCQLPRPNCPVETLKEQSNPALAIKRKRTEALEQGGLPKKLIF
Chain of CAK complex-CDK7/CyclinH/MAT1 (P51946 whole entry partner): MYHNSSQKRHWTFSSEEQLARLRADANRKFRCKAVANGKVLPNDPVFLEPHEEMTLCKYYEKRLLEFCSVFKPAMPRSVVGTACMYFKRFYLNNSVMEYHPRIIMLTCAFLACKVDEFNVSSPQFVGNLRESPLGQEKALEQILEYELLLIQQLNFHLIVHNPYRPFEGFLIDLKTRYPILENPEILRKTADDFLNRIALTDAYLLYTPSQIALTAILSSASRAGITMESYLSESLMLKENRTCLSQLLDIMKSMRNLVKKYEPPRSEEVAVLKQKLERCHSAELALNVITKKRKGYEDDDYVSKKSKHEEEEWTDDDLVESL
Chain of CAK complex-CDK7/CyclinH/MAT1 (P51948 whole entry partner): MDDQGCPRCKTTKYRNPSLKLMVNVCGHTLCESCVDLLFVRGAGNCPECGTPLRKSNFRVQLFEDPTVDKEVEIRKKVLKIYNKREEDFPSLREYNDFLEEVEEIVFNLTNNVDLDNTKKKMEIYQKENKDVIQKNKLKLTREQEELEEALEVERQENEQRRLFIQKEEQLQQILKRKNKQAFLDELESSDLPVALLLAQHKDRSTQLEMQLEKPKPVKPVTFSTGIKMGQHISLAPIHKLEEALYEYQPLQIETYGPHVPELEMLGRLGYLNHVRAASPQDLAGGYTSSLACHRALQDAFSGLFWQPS

SMILES: CN(C)C/C=C/C(=O)Nc1ccc(C(=O)Nc2cccc(Nc3ncc(Cl)c(-c4c[nH]c5ccccc45)n3)c2)cc1 [THZ1]
- Threonine phosphorylation of GST-MED1 (aa 1391-1490) at T1457 [1]: completely inhibited
- long-term colony formation [2]: severely inhibited long-term colony formation
- endogenous MED1-AR complex formation [3]: loss of endogenous MED1-AR complex formation
- AR target protein expression ([4]; LNCaP and VCaP): decreased AR target protein expression
- ERG levels ([4]; VCaP, dose and time-dependent): reduction in ERG levels
- p-MED1 or pS5-PolII levels [5]: no such decrease in p-MED1 or pS5-PolII levels
- tumor Ki-67 ([6]; vs vehicle): lower Ki-67
- tumor apoptosis ([6]; vs vehicle): increased apoptosis
- tumor p-MED1 levels ([6]; vs vehicle): reduced p-MED1 levels
- tumor growth ([6]; castrated mice): tumor growth inhibition
